How the values were obtained:
[1] = system: Jurkat human leukemia T cells; test: Cell cycle stage in Jurkat cells (propidium iodide flow cytometry); format: cell-based; settings: Jurkat, 24 h, 100 μg/ml
In short: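 Phase distribution (G0/G1, early, mid and late S, G2/M) came from flow cytometry with doublet discrimination on propidium iodide-stained nuclei. Jurkat cells were given 24 h exposure to 2–45-base oligonucleotides, or at 1×10^6 cells/ml to single 6-base GT or AC strands heated 10 min at 65 °C or 1:1 hybridized duplex.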

[2] = system: EL-4 murine T lymphoma cells; test: Inhibition of EL-4 cell proliferation (MTT); format: cell-based; settings: 100 μg/ml, 48 h
Method: (§1) Cells were seeded in 6 (1 ml/well), 24 (0.5 ml/well) or 96 (0.1 ml/well) well flat-bottom microplates and were maintained at 37° C. in a 5% CO2 atmosphere. Unless stated otherwise, 2.5×10^5 cells/ml were incubated with 0 μg/ml (control) and 100 μg/ml (treated) of 2 to 45 base sequences containing A, C, G and T for 48 h.
(§2) Cell proliferation was measured using dimethylthiazol-diphenyl-tetrazolium (MTT) reduction (Mosman et al. J. Immunol. Methods 65:55, 1983). MTT was measured at a wavelength of 570 nm using a multiplate spectrophotometer reader (ELX800, Bio-TEK Instruments Inc., Winooski, Vt.).
EL-4 murine lymphoma T cells are a suspension tumor model. EL-4 murine lymphoma T cells were incubated with 6, 18, 27 and 33 base GT sequences and with a 15 base ACG sequence (Table 18).

[3] = system: D-17 canine osteosarcoma cells; test: Inhibition of D-17 cell proliferation (MTT); format: cell-based; settings: 100 μg/ml, 48 h, 5×10^5 cells/ml
Method: as §1, §2
(§3) D-17 canine osteosarcoma cells and CF-51 canine mammary gland cancer cells are solid tumor models. D-17 canine osteosarcoma cells (5×10^5 cells/ml) (Table 20) and CF-51 canine mammary gland cancer cells (5×10^5 cells/ml) (Table 21) were incubated with 6, 9, 17, 27 and 33 base GT-sequences and with a 15 base ACG sequence.

[4] = system: MCF-7 human breast cancer cells; test: Inhibition of MCF-7 cell proliferation (MTT); format: cell-based
In short: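 Cells at 2.5×10^5 cells/ml (GT 3- and 6-base series at 5×10^5 cells/ml) treated with 100 μg/ml of 2-45-base oligonucleotide sequences versus untreated control for 48 h at 37 °C, 5% CO2. Proliferation read by MTT reduction at 570 nm.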

[5] = system: Jurkat human leukemia T cells; test: Inhibition of Jurkat human leukemia T cell proliferation (MTT reduction); format: cell-based; settings: for % INHIBITION of Jurkat human leukemia T cell proliferation: 100 μg/ml sequence, 48 h, 2.5×10^5 cells/ml
In short: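 Read-out is MTT absorbance at 570 nm after 48 h. Sequences of 2 to 45 bases (A, C, G, T) tested at 100 μg/ml against untreated control, with 2.5×10^5 Jurkat cells/ml held at 37° C under 5% CO2.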

[6] = system: Jurkat human leukemia T cells; test: NuMA release into supernatant (ELISA); format: cell-based
Method: The redistribution of phosphatidylserine in the plasma membrane during apoptosis was measured by flow cytometry using FITC-conjugated annexin V (BD Pharmingen, San Diego, Calif.). NuMA release into the supernatant was determined using a commercial ELISA kit (Oncogen/Calbiochem, Cambridge, Mass.).
Jurkat human leukemia T cells were incubated with 50 μM of 3, 4, 5, 6 and 7 GT base sequences, a 5 base ACGT sequence, 6 base AG, GG, AGT and CGT sequences and a 7 base GG sequence.
Jurkat human leukemia T cells (1×10^6/ml) were incubated with 6 and 27 GT base sequences (Table 32). NuMA was determined as in Example 23.
Jurkat human cell leukemia T cells were incubated for 24 h with 6 base GT SEQ ID NO:25, complementary 6 base AC SEQ ID NO:79, and 6 base GT SEQ ID NO:25+6 base AC SEQ ID NO:79. GT SEQ ID NO:25 and AC SEQ ID NO:79 were hybridized by mixing the sequences (1:1) and heating for 10 minutes at 65° C. As controls, GT SEQ ID NO:25 and AC SEQ ID NO:79 were heated for 10 minutes at 65° C. (Table 33). Apoptosis was evaluated as in Example 23.

[7] = system: EL-4 murine T lymphoma cells; test: EL-4 murine T lymphoma in C57/BL6 mice; format: in vivo; settings: after 4 weeks of treatment, compared with group 1 (saline)
Method: EL-4 murine T lymphoma cells are implanted into C57/BL6 mice. The mice are divided into 6 groups of 10 mice. On day 0, group 1 mice receive saline, group 2 mice receive 3 base GT SEQ ID NO:8, group 3 mice receive 6 base SEQ ID NO:25, group 4 mice receive 6 base AG SEQ ID NO:45, group 5 mice receive 18 base GT SEQ ID NO: 18 and group 6 mice receive 27 base GT SEQ ID NO:1. After 4 weeks of treatment, the mice are sacrificed and tumor mass is determined.

[8] = system: CF-51 canine mammary gland cancer cells; test: Inhibition of CF-51 cell proliferation (MTT); format: cell-based; settings: 100 μg/ml, 48 h, 5×10^5 cells/ml
Method: as §1, §2, §3

[9] = Melting temperature (Tm) of sequences; format: physicochemical
[10] = system: human peripheral blood mononuclear cells; test: Cytokine production by human PBMC (ELISA); format: cell-based; settings: PBMC of 7 healthy humans, 100 μg/ml, 48 h
In short: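 PBMC from 7 healthy donors, Ficoll-isolated; 1×10^6 cells incubated with 100 μg/ml oligonucleotide sequence for 48 h at 37 °C, 5% CO2. IL-1beta, IL-6, IL-10, IL-12 (p70 plus free p40) and TNF-alpha measured by ELISA in supernatant, expressed as fold increase over control cells.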

[11] = system: chimpanzee PBMCs; test: Cytokine production by chimpanzee PBMC (ELISA); format: cell-based; settings: PBMC of 4 healthy chimpanzees, 100 μg/ml, 48 h
In short: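 PBMCs from 4 healthy chimpanzees (1×10^6 cells) were incubated 48 h at 37 °C, 5% CO2 with 100 μg/ml of each 6-base sequence. Supernatant IL-10, IL-12 (p70 plus free p40) and TNF-alpha were measured by ELISA. Values are fold increase over untreated control cells.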

[12] = system: THP-1 human acute monocytic leukemia cells; test: Cytokine production by THP-1 cells (ELISA); format: cell-based; settings: THP-1, 1×10^6 cells, 100 μg/ml, 48 h
In short: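 Read-out is fold increase in supernatant cytokine versus control cells, measured by ELISA (IL-12 ELISA counts p70 complex plus free p40). Unless noted, sequences were tested at 100 μg/ml on 1×10^6 cells, incubated 48 h, 37° C, 5% CO2.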

[13] = system: LNCaP human prostate cancer cells; test: LNCaP human prostate cancer xenografts in male nude nu/nu mice; format: in vivo; settings: after 4 weeks of treatment, compared with other groups (group 1 saline, group 5 BCG A-3)
Method: LNCaP human prostate cancer cells are implanted subcutaneously, as xenografts, in male nude nu/nu mice. The mice are divided into 5 groups of 10 mice. On day 0, group 1 mice receive saline, group 2 mice receive 3 base SEQ ID NO:8, group 3 mice receive 6 base GT SEQ ID NO:25, group 4 mice receive 6 base AG SEQ ID NO:45 and group 5 mice receive 45 base BCG A-3 SEQ ID NO:69. After 4 weeks of treatment, the mice are sacrificed and timor mass is determined.

[14] = system: rhesus monkey PBMCs; test: Cytokine production by rhesus monkey PBMC (ELISA); format: cell-based; settings: PBMC of 4 healthy rhesus monkeys, 100 μg/ml, 48 h
In short: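 Peripheral blood mononuclear cells taken from 4 healthy rhesus monkeys were cultured at 1×10^6 cells with 100 μg/ml of each test sequence for 48 h at 37° C. under 5% CO2. Cytokine levels in 100 μl of supernatant were quantified in pg/ml by commercial ELISA and reported as fold increase over untreated control cells.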

[15] = system: Jurkat human leukemia T cells; test: Apoptosis by phosphatidylserine/annexin V-FITC flow cytometry; format: cell-based; settings: 50 μM sequence
In short: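 Jurkat cells were exposed to 3–7-base oligonucleotides (GT, ACGT, AG, GG, AGT, CGT sequences) at 50 μM. Separately, 6-base GT and complementary AC sequences, alone or hybridized 1:1 (10 min, 65 °C), were applied for 24 h. Phosphatidylserine exposure was quantified by flow cytometry with FITC-annexin V.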

[16] = 5-fluorouracil 0.1 μg/ml, alone or with sequence at 1.0 μg/ml
[17] = 5-fluorouracil 1.0 μg/ml, alone or with sequence at 1.0 μg/ml
[18] = 5-fluorouracil 10.0 μg/ml, alone or with sequence at 1.0 μg/ml
[19] = sequence at 1.0 μg/ml, 5-fluorouracil 0.0 μg/ml

Sequence: GTGTGTGTGTGTGTGTGTGTGTGTGTG [SEQ ID NO:1] (chemistry not given here)
- % of cells in phase: G0/G1 [1]: 40.6%
- % of cells in phase: G2/M [1]: 0.3%
- % of cells in phase: SE [1]: 35.6%
- % of cells in phase: SL [1]: 9.3%
- % of cells in phase: SM [1]: 14.2%
- Arrest (cell cycle) [1]: End SE
- % INHIBITION of EL-4 murine T lymphoma cell proliferation [2]: 1%
- % INHIBITION of D-17 canine osteosarcoma cell proliferation [3]: 23%
- % INHIBITION of MCF-7 proliferation, 5-Fluorouracil 0.1 μg/ml [4, 16]: 24%
- % INHIBITION of MCF-7 proliferation, 5-Fluorouracil 1.0 μg/ml [4, 17]: 35%
- % INHIBITION of MCF-7 proliferation, 5-Fluorouracil 10.0 μg/ml [4, 18]: 33%
- potentiation of antineoplastic effect of 5-fluorouracil on MCF-7 cell proliferation ([4]; sequence 1.0 μg/ml, 0.1 μg/ml 5-fluorouracil): did not potentiate
- potentiation of antineoplastic effect of tamoxifen on MCF-7 cell proliferation ([4]; sequence 1.0 μg/ml, 0.1 μg/ml tamoxifen): did not potentiate
- % INHIBITION of MCF-7 proliferation, 5-Fluorouracil 0.0 μg/ml [4, 19]: 8%
- % INHIBITION of MCF-7 proliferation, Tamoxifen 0.0 μg/ml ([4]; sequence at 1.0 μg/ml, tamoxifen 0.0 μg/ml): 8%
- % INHIBITION of MCF-7 proliferation, Tamoxifen 0.1 μg/ml ([4]; tamoxifen 0.1 μg/ml, alone or with sequence at 1.0 μg/ml): 19%
- % INHIBITION of MCF-7 proliferation, Tamoxifen 1.0 μg/ml ([4]; tamoxifen 1.0 μg/ml, alone or with sequence at 1.0 μg/ml): 24%
- % INHIBITION of MCF-7 proliferation, Tamoxifen 10.0 μg/ml ([4]; tamoxifen 10.0 μg/ml, alone or with sequence at 1.0 μg/ml): 20%
- % INHIBITION of Jurkat human leukemia T cell proliferation [5]: 51%
- % INHIBITION of Jurkat proliferation, 5-Fluorouracil 0.1 μg/ml [5, 16]: 15%
- % INHIBITION of Jurkat proliferation, 5-Fluorouracil 1.0 μg/ml [5, 17]: 25%
- % INHIBITION of Jurkat proliferation, 5-Fluorouracil 10.0 μg/ml [5, 18]: 41%
- % INHIBITION of Jurkat proliferation, Cisplatin 0.1 μg/ml ([5]; cisplatin 0.1 μg/ml, alone or with sequence at 1.0 μg/ml): 18%
- % INHIBITION of Jurkat proliferation, Cisplatin 1.0 μg/ml ([5]; cisplatin 1.0 μg/ml, alone or with sequence at 1.0 μg/ml): 35%
- % INHIBITION of Jurkat proliferation, Cisplatin 10.0 μg/ml ([5]; cisplatin 10.0 μg/ml, alone or with sequence at 1.0 μg/ml): 76%
- potentiation of antineoplastic effect of 5-fluorouracil on Jurkat T cell proliferation ([5]; sequence 1.0 μg/ml, 0.1 and 1.0 μg/ml 5-fluorouracil): potentiated
- % INHIBITION of Jurkat proliferation, 5-Fluorouracil 0.0 μg/ml [5, 19]: 3%
- % INHIBITION of Jurkat proliferation, Cisplatin 0.0 μg/ml ([5]; sequence at 1.0 μg/ml, cisplatin 0.0 μg/ml): 3%
- % NUMA RELEASED ([6]; Jurkat 1×10^6/ml): 22%
- tumor mass [7]: less tumor mass than group 1 mice
- % INHIBITION of CF-51 canine mammary gland cancer cell proliferation [8]: 23%

Sequence: GGGTGGGGGTGG [SEQ ID NO:68]
- melting temperature (Tm) [9]: 56.8 °C
- % INHIBITION of Jurkat human leukemia T cell proliferation [5]: 18%

Sequence: GGGAGG (unmodified DNA) [SEQ ID NO:45]
- IL-1 beta fold increase: mean +/− SD [10]: 13.6 +/− 14.9 fold increase
- IL-6 fold increase: mean +/− SD [10]: 24.7 +/− 16.5 fold increase
- IL-10 fold increase: mean +/− SD [10]: 6.0 +/− 5.5 fold increase
- IL-12 fold increase: mean +/− SD [10]: 20.7 +/− 10.3 fold increase
- IL-10 fold increase: mean +/− SD [11]: 9.9 +/− 9.2 fold increase
- IL-12 fold increase: mean +/− SD [11]: 15.9 +/− 10.7 fold increase
- TNF-alpha fold increase: mean +/− SD [11]: 14.5 +/− 6.9 fold increase
- ↑ IL-6 (fold increase treated vs control cells) [12]: 23.2x
- ↑ IL-12 (fold increase treated vs control cells) ([12]; p70 complex and free p40): −1.6x
- tumor mass [13]: less tumor mass than groups 1 and 5 mice
- % INHIBITION of Jurkat human leukemia T cell proliferation [5]: 28%
- % NuMA released (treated vs untreated cells) ([6]; Jurkat, 50 μM sequence): 74%
- IL-10 fold increase: mean +/− SD [14]: 1.1 +/− 0.1 fold increase
- IL-12 fold increase: mean +/− SD [14]: 11.9 +/− 4.5 fold increase
- TNF-alpha fold increase: mean +/− SD [14]: 16.7 +/− 4.6 fold increase
- tumor mass [7]: less tumor mass than group 1 mice
- % of cells in apoptosis (positive for PS/A-V staining) [15]: 27%

Source: US20070213291A1, “Therapeutically useful synthetic oligonucleotides” (priority 1999, published 2007)
